Results published in patent publication US20200206212A1 (Celgene Corporation, priority 2018, published 2020).

How the values were obtained:
[1] = type: physicochemical
Description: “Compound 1” or “API” in the Examples herein refers to polymorph Form C of 2-(4-chlorophenyl)-N-((2-(2,6-dioxopiperidin-3-yl)-1-oxoisoindolin-5-yl)methyl)-2,2-difluoroacetamide. […] Other forms of Compound 1, including Form A, Form B, Form D, Form F and amorphous form can be used in the formulations provided herein.

physchem = type: physicochemical; conditions: for solubility: organic solvent or mixture, thermodynamic from solid
Method: FA/AcOH mixtures ranging from 100% FA to 70%/30% FA/AcOH in decrements of 10% were used.
Solutions of FA/AcOH at ratios described in Table 39 were used. […] Samples were taken at each time point (4, 24, and 48 h) and assayed (36 total). Samples were spun down briefly (500 g, 4 min) to precipitate all solids and 25 μL of solution were taken for assay.

[2] = test system: acute myeloid leukemia (AML) at relapse; conditions: administered alone; cited from earlier work

Molecule | Hygroscopicity [1] | Solid State Stability [1] | major degradation pathway [1] | Solution Stability ([1]; pH 5) | solubility across FA/AcOH mixtures (physchem) | solubility (physchem; 40 °C) [mg/mL] | solubility (physchem; 60 °C) [mg/mL] | response in treating acute myeloid leukemia (AML) at relapse [2]
O=C1CCC(N2Cc3cc(CNC(=O)C(F)(F)c4ccc(Cl)cc4)ccc3C2=O)C(=O)N1 (centres unmarked) [Compound 1, 2-(4-chlorophenyl)-N-((2-(2,6-dioxopiperidin-3-yl)-1-oxoisoindolin-5-yl)methyl)-2,2-difluoroacetamide] | Not hygroscopic | DS is physically stable under all storage conditions. | Hydrolysis | not stable in solution at pH of 5.0 or above | maximized in 100% FA | > 250 | > 250 | –
CT-011: anti-PD-1 antibody, a humanized antibody | – | – | – | – | – | – | – | failed to show response
